Measured values as given in US10508109B2 (priority 2015, dated 2019).
Like-named read-outs stand apart in the source and are kept apart here.

Key:
A549 = assay: Cell-based assay, anti-proliferative activity (Cell Counting Kit-8, 72 hours); conditions: Homo sapiens, read-out: IC50 (μM) A549
Procedure, shortened: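 Seed cells in 96-well format; add inhibitors; measure growth by CCK-8 at end of exposure; derive IC50.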

CCD-18Co = assay: as above; conditions: Homo sapiens, read-out: IC50 (μM) CCD-18Co
Procedure, shortened: (§1)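 Anti-proliferative IC50 obtained from 96-well cultures treated 72 h with inhibitor at 0–100 micro-M, growth assessed by a CCK-8 colorimetric readout.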

HCT-116 = assay: as above; conditions: Homo sapiens, read-out: IC50 (μM) HCT-116
Procedure, shortened: as §1

HFL1 = assay: as above; conditions: Homo sapiens, read-out: IC50 (μM) HFL1
Procedure, shortened: as §1

PC14 = assay: as above; conditions: Homo sapiens, read-out: IC50 (μM) PC14
Procedure, shortened: as §1

SUV39H2 = SUV39H2 (Homo sapiens (Human), UniProt Q9H5I1); conditions: read-out: IC50 (μM) Suv 39H2 assay; enzyme assay
Chain of SUV39H2 (Q9H5I1 whole entry): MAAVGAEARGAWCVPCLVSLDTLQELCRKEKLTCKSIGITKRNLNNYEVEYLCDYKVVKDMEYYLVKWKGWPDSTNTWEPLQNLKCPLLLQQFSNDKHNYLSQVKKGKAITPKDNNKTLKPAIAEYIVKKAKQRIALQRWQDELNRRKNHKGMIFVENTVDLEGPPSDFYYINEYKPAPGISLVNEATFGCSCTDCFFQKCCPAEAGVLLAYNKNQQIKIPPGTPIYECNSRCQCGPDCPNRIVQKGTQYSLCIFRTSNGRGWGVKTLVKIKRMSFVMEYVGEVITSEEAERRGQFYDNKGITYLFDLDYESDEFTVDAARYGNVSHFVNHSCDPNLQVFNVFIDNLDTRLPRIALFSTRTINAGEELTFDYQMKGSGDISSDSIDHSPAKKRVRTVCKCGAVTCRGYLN

[1] = A549 cells, 72 hours, Cell Counting Kit-8
[2] = CCD-18Co cells, 72 hours, Cell Counting Kit-8
[3] = HCT-116 cells, 72 hours, Cell Counting Kit-8
[4] = HFL1 cells, 72 hours, Cell Counting Kit-8
[5] = PC-14, PC14 cells, 72 hours, Cell Counting Kit-8

Structure (SMILES) | IC50 (A549; [1]) [µM] | IC50 (CCD-18Co; [2]) [µM] | IC50 (HCT-116; [3]) [µM] | IC50 (HFL1; [4]) [µM] | IC50 (PC14; [5]) [µM] | IC50 (SUV39H2) [µM] | IC50 (A549; A549, 72 h) [µM] | IC50 (CCD-18Co; CCD-18Co, 72 h) [µM] | IC50 (HCT-116; HCT-116, 72 h) [µM] | IC50 (HFL1; HFL1, 72 h) [µM] | IC50 (PC14; PC-14, 72 h) [µM]
COc1cc(OC)c(-c2cn3ccc(N4CCN(C(=O)C5CCCC5)CC4)cc3n2)cc1Cl [Example 241, (4-(2-(5-chloro-2,4-dimethoxyphenyl)imidazo[1,2-a]pyridine-7-yl)piperazin-1-yl)(cyclopentyl)methanone] | 2.3 | 2.5 | 2.4 | 1.5 | 1.6 | 0.00768 |  |  |  |  | 
COc1cc(OC)c(-c2cn3ccc(N4CCN(C(=O)C5CC5)CC4)nc3n2)cc1Cl [Example 242, (4-(2-(5-Chloro-2,4-dimethoxyphenyl)imidazo[1,2-a]pyrimidin-7-yl)-piperazin-1-yl)(cyclopropyl)methanone] | 10 | 10 | 10 | 10 | 6.3 | 0.0154 |  |  |  |  | 
COc1cc(OC)c(-c2cn3ccc(N4CCN(C(=O)C5CCCC5)CC4)nc3n2)cc1Cl [Example 243, (4-(2-(5-chloro-2,4-dimethoxyphenyl)imidazo[1,2-a]pyrimidin-7-yl)-piperazin-1-yl)(cyclopentyl)methanone] | 4.7 | 6.1 | 5.8 | 4.8 | 3.3 | 0.0183 |  |  |  |  | 
COc1cc(OC)c(-c2cn3ccc(NC(=O)[C@@H]4CCCN4)cc3n2)cc1Cl [Example 244, (S)—N-(2-(5-chloro-2,4-dimethoxyphenyl)imidazo[1,2-a]pyridin-7-yl)-pyrrolidine-2-carboxamide] | 10 | 8.8 | 10 | 9.8 | 5.2 | 0.0533 |  |  |  |  | 
COc1cc(OC)c(-c2cn3ccc(N4CCN(S(=O)(=O)C5CC5)C(COCCN(C)C)C4)cc3n2)cc1Cl (stereo not drawn) [Example 245, 2-((4-(2-(5-chloro-2,4-dimethoxyphenyl)imidazo[1,2-a]pyridin-7-yl)-1-(cyclopropylsulfonyl)piperazin-2-yl)methoxy)-N,N-dimethylethanamine] | 5.5 | 5 | 9.4 | 5.4 | 5.1 | 0.00863 |  |  |  |  | 
COc1cc(OC)c(-c2cn3ccc(-c4ccc(C(=O)O)cc4)cc3n2)cc1Cl [Example 246, 4-(2-(5-chloro-2,4-dimethoxyphenyl)imidazo[1,2-a]pyridin-7-yl)benzoic acid] | 10 | 10 | 10 | 10 | 10 | 0.0143 |  |  |  |  | 
COc1cc(OC)c(-c2cn3ccc(-c4ccc(C(=O)NCC5CCCN5)cc4)cc3n2)cc1Cl (stereo not drawn) [Example 248, 4-(2-(5-chloro-2,4-dimethoxyphenyl)imidazo[1,2-a]pyridin-7-yl)-N-(pyrrolidin-2-ylmethyl)benzamide] | 4.6 | 3.1 | 2.3 | 5.7 | 2.6 | 0.0157 |  |  |  |  | 
COc1cc(OC)c(-c2cn3ccc(NC(=O)[C@@H](N)Cc4c[nH]c5ccccc45)cc3n2)cc1Cl [Example 250, (S)-2-amino-N-(2-(5-chloro-2,4-dimethoxyphenyl)imidazo[1,2-a]pyridin-7-yl)-3-(1H-indol-3-yl)propanamide] |  |  |  |  |  | 0.0427 | 6.6 | 4 | 6.9 | 3.6 | 4.2
COc1cc(OC)c(-c2cn3ccc(-c4ccc(C(=O)NCC5CCCNC5)cc4)cc3n2)cc1Cl (stereo not drawn) [Example 251, 4-(2-(5-chloro-2,4-dimethoxyphenyl)imidazo[1,2-a]pyridin-7-yl)-N-(piperidin-3-ylmethyl)benzamide] | 9.7 | 10 | 5.8 | 8.3 | 5.4 | 0.0308 |  |  |  |  | 
COc1cc(OC)c(-c2cn3ccc(NC(=O)[C@@H](N)C(C)C)cc3n2)cc1Cl [Example 252, (S)-2-amino-N-(2-(5-chloro-2,4-dimethoxyphenyl)imidazo[1,2-a]pyridin-7-yl)-3-methylbutanamide] |  |  |  |  |  | 0.0423 | 7.8 | 4.7 | 5.4 | 5.9 | 6.3
COc1cc(OC)c(-c2cn3ccc(NC(=O)[C@H](C)NC(=O)OC(C)(C)C)cc3n2)cc1Cl [Example 253, (S)-tert-butyl (1-((2-(5-chloro-2,4-dimethoxyphenyl)imidazo[1,2-a]-pyridin-7-yl)amino)-1-oxopropan-2-yl)carbamate] | 10 | 6.7 | 10 | 6.5 | 6.9 | 0.0582 |  |  |  |  | 
COc1cc(OC)c(-c2cn3ccc(-c4ccc(C(=O)N5CCNCC5)cc4)cc3n2)cc1Cl [Example 254, (4-(2-(5-chloro-2,4-dimethoxyphenyl)imidazo[1,2-a]pyridin-7-yl)-phenyl)(piperazin-1-yl)methanone] | 2.7 | 3.1 | 2.6 | 2.8 | 0.99 | 0.0383 |  |  |  |  | 
COc1cc(OCSC)c(-c2cn3ccc(N4CCN(S(=O)(=O)C5CC5)CC4)cc3n2)cc1Cl [Example 255, 2-(5-chloro-4-methoxy-2-((methylthio)methoxy)phenyl)-7-(4-(cyclopropylsulfonyl)piperazin-1-yl)imidazo[1,2-a]pyridine] | 2.5 | 1.9 | 2.3 | 1.7 | 1.5 | 0.00672 |  |  |  |  | 
COc1cc(OC)c(-c2cn3ccc(-c4ccc(C(=O)NCC(O)CN)cc4)cc3n2)cc1Cl (stereo not drawn) [Example 256, N-(3-amino-2-hydroxypropyl)-4-(2-(5-chloro-2,4-dimethoxyphenyl)-imidazo[1,2-a]pyridin-7-yl)benzamide] | 10 | 10 | 10 | 10 | 10 | 0.0217 |  |  |  |  | 
CC[C@@H](C)[C@H](NC(=O)OC(C)(C)C)C(=O)Nc1ccn2cc(-c3cc(Cl)c(OC)cc3OC)nc2c1 [Example 257, tert-butyl ((2S,3R)-1-((2-(5-chloro-2,4-dimethoxyphenyl)imidazo[1,2-a]-pyridin-7-yl)amino)-3-methyl-1-oxopentan-2-yl)carbamate] | 5 | 5.1 | 5.5 | 5.2 | 3 | 0.0435 |  |  |  |  | 
CC[C@@H](C)[C@H](N)C(=O)Nc1ccn2cc(-c3cc(Cl)c(OC)cc3OC)nc2c1 [Example 258, (2S,3R)-2-amino-N-(2-(5-chloro-2,4-dimethoxyphenyl)imidazo[1,2-a]-pyridin-7-yl)-3-methylpentanamide] | 5.8 | 4.6 | 7.6 | 6.8 | 5.7 | 0.0639 |  |  |  |  | 
COc1cc(OC)c(-c2cn3ccc(-c4ccc(C(=O)N5CCC(N)CC5)cc4)cc3n2)cc1Cl [Example 259, (4-aminopiperidin-1-yl)(4-(2-(5-chloro-2,4-dimethoxyphenyl)imidazo[1,2-a]pyridin-7-yl)phenyl)methanone] | 10 | 10 | 7.3 | 8.6 | 7.9 | 0.0586 |  |  |  |  | 
CCc1cc(OC)c(Cl)cc1-c1cn2ccc(N3CCNCC3)cc2n1 [Example 260, 2-(5-chloro-2-ethyl-4-methoxyphenyl)-7-(piperazin-1-yl)imidazo-[1,2-a]pyridine] | 6.1 | 3.5 | 3.4 | 3.6 | 3.4 | 0.0344 |  |  |  |  | 
CCc1cc(OC)c(Cl)cc1-c1cn2ccc(N3CCN(S(=O)(=O)C4CC4)CC3)cc2n1 [Example 261, 2-(5-chloro-2-ethyl-4-methoxyphenyl)-7-(4-(cyclopropylsulfonyl)piperazin-1-yl)imidazo[1,2-a]pyridine] | 0.12 | 0.36 | 0.18 | 0.18 | 0.059 | 0.0966 |  |  |  |  | 
COc1cc(C)c(-c2cn3ccc(N4CCN(S(=O)(=O)C5CC5)C(CO)C4)cc3n2)cc1Cl (stereo not drawn) [Example 262, (4-(2-(5-chloro-4-methoxy-2-methylphenyl)imidazo[1,2-a]pyridin-7-yl)-1-(cyclopropylsulfonyl)piperazin-2-yl)methanol] | 2.4 | 5.5 | 3.2 | 3.2 | 1.1 | 0.0453 |  |  |  |  | 
COc1cc(OC)c(-c2cn3ccc(NC(=O)[C@@H]4CCCN4C)cc3n2)cc1Cl [Example 263, (S)—N-(2-(5-chloro-2,4-dimethoxyphenyl)imidazo[1,2-a]pyridin-7-yl)-1-methylpyrrolidine-2-carboxamide] | 1.8 | 1.4 | 0.99 | 1.8 | 1.7 | 0.065 |  |  |  |  | 
